Bounds are passed on as bounds.

In general, Ki refers to a measure of affinity in units of concentration, obtained from inhibition or displacement.

The target of this experiment is Sodium-dependent dopamine transporter (Rattus norvegicus, UniProt P23977). The experiment is described as follows: Binding affinity against dopamine transporter in rat caudate putamen tissue using [3H]WIN-35428 radioligand. Format: tissue-based.
Chain of Sodium-dependent dopamine transporter (P23977 whole entry): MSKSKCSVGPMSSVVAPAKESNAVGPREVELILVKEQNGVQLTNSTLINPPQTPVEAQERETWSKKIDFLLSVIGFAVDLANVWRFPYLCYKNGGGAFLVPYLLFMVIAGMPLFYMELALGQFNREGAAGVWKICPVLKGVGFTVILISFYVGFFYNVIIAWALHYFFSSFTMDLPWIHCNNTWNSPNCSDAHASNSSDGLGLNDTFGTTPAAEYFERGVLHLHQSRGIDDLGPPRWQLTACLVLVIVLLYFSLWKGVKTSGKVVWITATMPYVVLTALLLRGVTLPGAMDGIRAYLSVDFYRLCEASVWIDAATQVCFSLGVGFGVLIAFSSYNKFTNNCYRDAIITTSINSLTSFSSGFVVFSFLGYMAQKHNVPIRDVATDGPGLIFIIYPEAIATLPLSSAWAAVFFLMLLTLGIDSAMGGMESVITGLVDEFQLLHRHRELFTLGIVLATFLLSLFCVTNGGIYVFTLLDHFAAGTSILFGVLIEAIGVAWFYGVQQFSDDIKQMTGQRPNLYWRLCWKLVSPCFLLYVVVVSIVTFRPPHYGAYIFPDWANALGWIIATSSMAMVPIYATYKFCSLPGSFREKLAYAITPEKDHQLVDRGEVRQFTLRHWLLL
As for `CN1C2CCCC1C(C(=O)c1ccccc1)C(c1ccccc1)C2` (stereo in doubt; 13), the Ki amounted to 3970 nM. As to `CN1C2CCCC1C(C(=O)c1ccccc1)C(c1ccccc1)C2` (stereo in doubt; 14), the Ki came out at 1910 nM.

The compound `COC(=O)[C@@H]1C2CC[C@H](C[C@@H]1c1ccccc1)N2C` yielded a Ki of 310 nM. The result for `CO/C(O)=C1/C(=O)CCC2CCCC1N2C` (centres undefined) reads over 100000 nM.
